Measurements: patent US20110039763A1, “TARGETED ANTIMICROBIAL MOIETIES” (C3 JIAN, INC., priority 2009, published 2011)
“Also recorded” adds a separate entry of the source.

Legend:
microorganisms [1] = test: Peptide activities: targeting/binding, antimicrobial, growth or phenotype altering (Tables 7, 8); assay type: cell-based; conditions: peptides having multiple activities
microorganisms [2] = test: Targeting peptide binding to target microorganisms (Tables 3, 10, 12); conditions: microorganism(s) the targeting peptide binds, preferably 1x PBS
microorganisms [3] = test: Morphology, biofilm and growth disrupting peptides (Table 5); assay type: cell-based; set-up: key: A: Peptide aggregates; B: Less hyphal formation; Clumps; Diffuse clumps and small polyps; F: Diffuse growth; H: Thin; I: Growth inhibition; Microcolony formation; Rippled; Small polyps; Thick; W: Halo formation on top, microlonies on bottom
Description: In certain embodiments peptides that induce alterations in phenotype or other biological activities can also be used as antimicrobial effector moieties.

[4] = binding in aqueous buffers that varied with peptide solubility
[5] = binding in aqueous buffers varied with peptide solubility

For “PF-041: peptide having multiple activities (ELLVILPGFI; Peptide with targeting and/or antimicrobial activity)”, the Activities (microorganisms [1]) was “G B”, the “Target(s)” value (microorganisms [2]; [4]) was “MRSA” and the “Organism, effect: MRSA” value (microorganisms [3]) was “MRSA (M)”. The “Organism, effect: S. epidermidis” value (microorganisms [3]) was “S. epidermidis (R)”.

“PF-043: peptide having multiple activities (MIKNETAYQMNELLVIRSAYAK; Peptide with targeting and/or antimicrobial activity)” was tested, and the Activities (microorganisms [1]) was “G B”, the “Target(s)” value (microorganisms [2]; [4]) was “M. luteus; also recorded: C. jejuni” and the “Organism, effect: C. jeikeium” value (microorganisms [3]) was “C. jeikeium (A)”. The “Organism, effect: M. luteus” value (microorganisms [3]) was “M. luteus (C)”, the “Organism, effect: MRSA” value (microorganisms [3]) was “MRSA (R)” and the “Organism, effect: S. epidermidis” value (microorganisms [3]) was “S. epidermidis (D)”.

With “PF-045: peptide having multiple activities (LDINDYRSTY; Peptide with targeting and/or antimicrobial activity)” the Activities (microorganisms [1]) was “G B”, the “Target(s)” value (microorganisms [2]; [4]) was “S. epidermidis; also recorded: E. coli; also recorded: E. faecalis; also recorded: C. jejuni” and the “Organism, effect: MRSA” value (microorganisms [3]) was “MRSA (S)”.

“PF-046: peptide having multiple activities (LDFYLTKHLTLML; Peptide with targeting and/or antimicrobial activity)” was tested, and the Activities (microorganisms [1]) was “G B”, the “Target(s)” value (microorganisms [2]; [4]) was “E. coli; also recorded: E. faecalis; also recorded: C. jeikeium” and the “Organism, effect: C. jeikeium” value (microorganisms [3]) was “C. jeikeium (R)”. The “Organism, effect: MRSA” value (microorganisms [3]) was “MRSA (R)” and the “Organism, effect: S. epidermidis” value (microorganisms [3]) was “S. epidermidis (C)”.

With “PF-048: peptide having multiple activities (LYFAFKKYQERVNQAPNIEY; Peptide with targeting and/or antimicrobial activity)” the Activities (microorganisms [1]) was “G B”, the “Target(s)” value (microorganisms [2]; [4]) was “S. epidermidis and M. luteus and E. coli and MRSA and C. jeikeium and C. jejuni” and the “Organism, effect: C. jeikeium” value (microorganisms [3]) was “C. jeikeium (S)”. For the same substance, the “Organism, effect: MRSA” value (microorganisms [3]) was “MRSA (W)” and the “Organism, effect: S. epidermidis” value (microorganisms [3]) was “S. epidermidis (D)”.

In the case of “PF-049: peptide having multiple activities (AYYLKRREEKGK; Peptide with targeting and/or antimicrobial activity)”, the Activities (microorganisms [1]) was “G B”, the “Target(s)” value (microorganisms [2]; [4]) was “S. epidermidis and MRSA and C. jeikeium and C. jejuni” and the “Organism, effect: MRSA” value (microorganisms [3]) was “MRSA (S)”.

For “PF-051: peptide having multiple activities (RFFNFEIKKSTKVDYVFAHVDLSDV; Peptide with targeting and/or antimicrobial activity)”, the Activities (microorganisms [1]) was “G B”, the “Target(s)” value (microorganisms [2]; [4]) was “S. epidermidis and M. luteus and P. aeruginosa and C. albicans and MRSA and S. pneumoniae and E. faecalis” and the “Organism, effect: M. luteus” value (microorganisms [3]) was “M. luteus (C)”. The “Organism, effect: MRSA” value (microorganisms [3]) was “MRSA (D)”, the “Organism, effect: S. epidermidis” value (microorganisms [3]) was “S. epidermidis (D)” and the “Organism, effect: S. mutans” value (microorganisms [3]; S. mutans, class symbol) was “S. mutans (D)”. The “Organism, effect: S. pneumoniae” value (microorganisms [3]) was “S. pneumoniae (D)”.

With “PF-052: peptide having multiple activities (QELINEAVNLLVKSK; Peptide with targeting and/or antimicrobial activity)” the Activities (microorganisms [1]) was “G B”, the “Target(s)” value (microorganisms [2]; [4]) was “S. epidermidis and M. luteus and E. coli and MRSA and E. faecalis and C. jeikeium and C. jejuni” and the “Organism, effect: C. jeikeium” value (microorganisms [3]) was “C. jeikeium (D)”. The “Organism, effect: M. luteus” value (microorganisms [3]) was “M. luteus (A)”, the “Organism, effect: MRSA” value (microorganisms [3]) was “MRSA (R)” and the “Organism, effect: S. epidermidis” value (microorganisms [3]) was “S. epidermidis (S)”.

With “PF-058: peptide having multiple activities (FADQSQDNA; Peptide with targeting and/or antimicrobial activity)” the Activities (microorganisms [1]) was “G B”, the “Target(s)” value (microorganisms [2]; [4]) was “S. epidermidis and M. luteus and E. coli and C. albicans and MRSA and C. jeikeium and C. jejuni” and the “Organism, effect: MRSA” value (microorganisms [3]) was “MRSA (M)”.

In the case of “PF-061: peptide having multiple activities (GYNSYKAVQDVKTHSEEQRVTAKK; Peptide with targeting and/or antimicrobial activity)”, the Activities (microorganisms [1]) was “G B”, the “Target(s)” value (microorganisms [2]; [4]) was “S. epidermidis; also recorded: S. pneumoniae” and the “Organism, effect: B. subtilis” value (microorganisms [3]) was “B. subtilis (R)”. For the same substance, the “Organism, effect: C. jejuni” value (microorganisms [3]) was “C. jejuni (R)”, the “Organism, effect: S. epidermidis” value (microorganisms [3]) was “S. epidermidis (R)” and the “Organism, effect: S. pneumoniae” value (microorganisms [3]) was “S. pneumoniae (R)”.

In the case of “PF-064: peptide having multiple activities (DYYGKE; Peptide with targeting and/or antimicrobial activity)”, the Activities (microorganisms [1]) was “G B”, the “Target(s)” value (microorganisms [2]; [4]) was “E. coli” and the “Organism, effect: MRSA” value (microorganisms [3]) was “MRSA (M)”. For the same substance, the “Organism, effect: S. epidermidis” value (microorganisms [3]) was “S. epidermidis (D)”.

With “PF-065: peptide having multiple activities (LEKNTRDNYFIHAIDRIYINTSKGLFPESELVAWG; Peptide with targeting and/or antimicrobial activity)” the Activities (microorganisms [1]) was “G B”, the “Target(s)” value (microorganisms [2]; [4]) was “M. luteus and E. coli and P. aeruginosa and C. albicans and MRSA and S. pneumoniae and C. jeikeium and C. jejuni” and the “Organism, effect: C. jeikeium” value (microorganisms [3]) was “C. jeikeium (A)”. The “Organism, effect: MRSA” value (microorganisms [3]) was “MRSA (R)” and the “Organism, effect: S. epidermidis” value (microorganisms [3]) was “S. epidermidis (D)”.

In the case of “PF-069: peptide having multiple activities (chain 1 FDPVPLKKDKSASKHSHKHNH; chain 2 FDPVPLKKDKSASKHSHKHNH; Peptide with targeting and/or antimicrobial activity)”, the Activities (microorganisms [1]) was “G B”, the “Target(s)” value (microorganisms [2]; [4]) was “E. faecalis; also recorded: C. jejuni” and the “Organism, effect: B. subtilis” value (microorganisms [3]) was “B. subtilis (D)”. For the same substance, the “Organism, effect: C. jejuni” value (microorganisms [3]) was “C. jejuni (R)”.

For “PF-070: peptide having multiple activities (chain 1 SMVKSEIVDLLNGEDNDD; chain 2 SMVKSEIVDLLNGEDNDD; Peptide with targeting and/or antimicrobial activity)”, the Activities (microorganisms [1]) was “G B”, the “Target(s)” value (microorganisms [2]; [4]) was “S. epidermidis; also recorded: C. jejuni” and the “Organism, effect: B. subtilis” value (microorganisms [3]) was “B. subtilis (D)”.

“PF-074: peptide having multiple activities (chain 1 RDIHPIYFMTKD; chain 2 RDIHPIYFMTKD; Peptide with targeting and/or antimicrobial activity)” was tested, and the Activities (microorganisms [1]) was “G B”, the “Target(s)” value (microorganisms [2]; [5]) was “S. epidermidis and M. luteus and MRSA” and the “Organism, effect: MRSA” value (microorganisms [3]) was “MRSA (M)”. The “Organism, effect: S. epidermidis” value (microorganisms [3]) was “S. epidermidis (D)”.

In the case of “PF-099: peptide having multiple activities (chain 1 EIIAYLEGRFANA; chain 2 EIIAYLEGRFANA; Peptide with targeting and/or antimicrobial activity)”, the Activities (microorganisms [1]) was “G B”, the “Target(s)” value (microorganisms [2]; [5]) was “S. epidermidis; also recorded: M. luteus; also recorded: E. coli; also recorded: C. jeikeium” and the “Organism, effect: C. jeikeium” value (microorganisms [3]) was “C. jeikeium (C)”. The “Organism, effect: S. epidermidis” value (microorganisms [3]) was “S. epidermidis (D)”.

“PF-123: peptide having multiple activities (chain 1 TTRPQVAEDRQLDDALKETFPASDPISP; chain 2 TTRPQVAEDRQLDDALKETFPASDPISP; Peptide with targeting and/or antimicrobial activity)” was tested, and the Activities (microorganisms [1]) was “G B”, the “Target(s)” value (microorganisms [2]; [5]) was “M. luteus; also recorded: E. coli” and the “Organism, effect: S. epidermidis” value (microorganisms [3]) was “S. epidermidis (M)”.

In the case of “PF-128: peptide having multiple activities (chain 1 GIKVVAARFEEIQFSENFDSIILA; chain 2 GIKVVAARFEEIQFSENFDSIILA; Peptide with targeting and/or antimicrobial activity)”, the Activities (microorganisms [1]) was “G B”, the “Target(s)” value (microorganisms [2]; [5]) was “M. luteus; also recorded: P. aeruginosa; also recorded: E. faecalis” and the “Organism, effect: P. aeruginosa” value (microorganisms [3]; P. aeruginosa) was “P. aeruginosa (C)”. For the same substance, the “Organism, effect: S. epidermidis” value (microorganisms [3]) was “S. epidermidis (D)”.
